In patent publication US20120052573A1, “ONE-POT SYNTHESIS OF LINEAR-LIKE POLYETHYLENIMINE FOR INTRACELLULAR IMAGING AND NUCLEIC ACID DELIVERY” (NATIONAL HEALTH RESEARCH INSTITUTES, priority 2010, published 2012):

Test system: H460 human lung cancer cells
Experiment: Flow cytometry cell cycle arrest analysis after cyclin B1 siRNA delivery
Type: cell-based
Conditions: [siRNA]=200 nM, [compound b]=100 ng/mL, 24 h, no fetal bovine serum, n=3
Method: Flow cytometry for cell cycle analysis. Human lung cancer cells, H460, at 2×10^5 cells/mL were treated with cyclin B1siRNA alone (200 nM) or compound b/siRNA complex ([compound b]=100 ng/mL, [cyclin B1 siRNA]=200 nM) in RPMI 1640 medium for […] at 37° C., 5% CO2(g). After the treatments, cells were washed twice in PBS buffer solution and fixed in cold. PBS solution containing 75% ethanol. After washing with PBS and centrifugation at 1,500 rpm for 5 min, cells were stained with propidium iodide (PI) and analyzed by FACS Calibur (BD PharMingen, N.J., USA) using WinMDI 2.9 analysis software. The cyclic B1 siRNA sequence is 5′-[…]-3 (SEQ ID NO: 1) for sense and 5′-[…]-3 (SEQ ID NO: 2) (NCBI accession number of cyclin B1: NM031966) for anti-sense.
PEI has a high cationic density and can associate with nucleic acids such as siRNA to form a cationic polyplex. The efficiency of the PEI according to the invention as a delivery vehicle for siRNA was examined. Compound b (LPEI) was used to associate with a siRNA for silencing Cyclin B1, which is an indispensable protein for cell mitosis. […] The population proportions of cells were analyzed and summarized in histogram profile (FIG. 4E). […]
H460 lung cancer cells were treated with compound b/siRNA complex for 24 h, and the cell cycle distribution was examined by flow cytometry. […] FL2A: fluorescence pulse area. *p<0.05.

siRNA alone: cyclin B1 siRNA, sense SEQ ID NO: 1, anti-sense SEQ ID NO: 2 (sense ACAUGAGAGCCAUCCUAAUUGTT; antisense CAAUUAGGAUGGCUCUCAUGUTT; chemistry not given here)
population in G2/M phase of the cell cycle, increase compared with control: 5.52%±0.406
